Data as given in patent publication US20240409585A1, “MACROCYCLIC IMMUNOMODULATORS” (priority 2021, published 2024).
Numbered stars: 1 amine (or outer) side, 2 acyl side, 3 side chain; on linkers, the order of the positions; unused ones are H or OH. Bridge positions count the residues as written; N and C are the ends. Square brackets hold non-standard residues; d marks the D form. Peptide text beside a SMILES is read from it. * marks the point of attachment. ξ: configuration not given here. X29 = O=C([C@H](Cc1ccc(-c2cc(F)cc(F)c2)cc1)N[*:1])[*:2]; Phe(4-COOH) = N[C@@H](Cc1ccc(C(=O)O)cc1)C(=O)O; Bip = N[C@@H](Cc1ccc(-c2ccccc2)cc1)C(=O)O; Phe(3-F) = N[C@@H](Cc1cccc(F)c1)C(=O)O; Phe(3-Me) = Cc1cccc(C[C@H](N)C(=O)O)c1; Phe(4-F) = N[C@@H](Cc1ccc(F)cc1)C(=O)O; Val(3-OH) = CC(C)(O)[C@H](N)C(=O)O; 3Pal = N[C@@H](Cc1cccnc1)C(=O)O; 4Pal = N[C@@H](Cc1ccncc1)C(=O)O; Cha = N[C@@H](CC1CCCCC1)C(=O)O; Cit = NC(=O)NCCC[C@H](N)C(=O)O; Thr(3ξ) = CC(O)[C@H](N)C(=O)O; Pip = O=C(O)[C@@H]1CCCCN1; Carboxymethyl = O=C(O)C*; NMeA = CN[C@@H](C)C(=O)O; Orn = NCCC[C@H](N)C(=O)O; Dab = NCC[C@H](N)C(=O)O; Dap = NC[C@H](N)C(=O)O

These compounds were tested against T1, PE-labeled human PD-L1-Ig binding to Jurkat cell line over-expressing human PD-1 (Jurkat-PD-1) (Homo sapiens, UniProt Q15116) (assay: Jurkat-PD-1 Cell Binding High-Content Screening Assay (CBA): Method 1). Conditions: Jurkat-hPD-1 cells, PE-labeled PD-L1-Ig 20 nM final; read-out: Jurkat HPDL1 PD1 IC50 (uM) (Method 1).
T1 construct: expressed in transfected cells; host or cells: Jurkat
T1 sequence (Q15116 25-288): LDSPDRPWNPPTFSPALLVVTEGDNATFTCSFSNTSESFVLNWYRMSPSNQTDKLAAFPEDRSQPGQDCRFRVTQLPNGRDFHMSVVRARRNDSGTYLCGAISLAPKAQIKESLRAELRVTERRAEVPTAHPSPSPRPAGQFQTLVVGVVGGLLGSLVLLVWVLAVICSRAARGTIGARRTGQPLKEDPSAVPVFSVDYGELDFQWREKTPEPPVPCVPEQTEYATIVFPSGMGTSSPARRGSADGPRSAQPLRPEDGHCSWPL

SMILES	IC50 [µM]
CC(C)C[C@@H]1NC(=O)[C@H](CCN)NC(=O)[C@@H](CC(C)C)NC(=O)[C@H](C)N(C)C(=O)[C@H](CCCNC(=N)N)NC(=O)[C@H](Cc2ccc(-c3cc(F)cc(F)c3)cc2)NC(=O)[C@H](C(C)C)NC(=O)[C@H](Cc2c[nH]c3ccccc23)NC(=O)[C@H](CC(=O)O)NC(=O)[C@H](Cc2ccc(O)cc2)NC(=O)[C@H](CC(N)=O)NC(=O)CSC[C@@H](C(=O)N[C@@H](C)C(N)=O)NC(=O)[C@H]([C@@H](C)O)NC(=O)[C@H](C(C)C)NC1=O [Compound 1220] ({CH2CO}-NYDWV[X29]R[NMeA][dL][Dab]LVTCA-NH2; thioether N-14)	0.26
CC(C)C[C@@H]1NC(=O)[C@H](Cc2c[nH]c3ccccc23)NC(=O)[C@H](CC(=O)O)NC(=O)[C@H](Cc2ccc(O)cc2)NC(=O)[C@H](Cc2ccccc2)NC(=O)CSC[C@@H](C(=O)N[C@@H](C)C(N)=O)NC(=O)[C@H](CO)NC(=O)[C@H](C(C)C)NC(=O)[C@H](CC(C)C)NC(=O)[C@H](CCCNC(=N)N)NC(=O)[C@@H](CC(C)C)NC(=O)[C@H](C)N(C)C(=O)[C@H](CCCNC(=N)N)NC(=O)[C@H](Cc2ccc(-c3ccccc3)cc2)NC1=O [Compound 1780] ({CH2CO}-FYDWL[Bip]R[NMeA][dL]RLVSCA-NH2; thioether N-14)	0.08
Cc1cccc(C[C@@H]2NC(=O)[C@H](CC(=O)O)NC(=O)[C@H](Cc3ccc(OCC(=O)O)cc3)NC(=O)[C@H](CN)NC(=O)CSC[C@@H](C(N)=O)NC(=O)[C@H](CC(N)=O)NC(=O)[C@H](C(C)C)NC(=O)[C@H](CC3CCCCC3)NC(=O)[C@H](CCN)NC(=O)[C@@H](CC(C)C)NC(=O)[C@@H]3CCCCN3C(=O)[C@H](Cc3ccc(OCC(=O)O)cc3)NC(=O)[C@H](Cc3ccc(-c4ccccc4)cc3)NC(=O)[C@H](Cc3ccc(OCC(=O)O)cc3)NC2=O)c1 [Compound 1895] ({CH2CO}-[Dap]Y(Carboxymethyl)D[Phe(3-Me)]Y(Carboxymethyl)[Bip]Y(Carboxymethyl)[Pip][dL][Dab][Cha]VNC-NH2; thioether N-14)	0.11
CC(=O)NCCC[C@@H]1NC(=O)[C@H](Cc2ccc(-c3ccccc3)cc2)NC(=O)[C@H](Cc2ccc(O)cc2)NC(=O)[C@H](Cc2cccc(C)c2)NC(=O)[C@H](CC(=O)O)NC(=O)[C@H](Cc2ccc(OCC(=O)O)cc2)NC(=O)[C@H](CCCNC(=N)N)NC(=O)CSC[C@@H](C(N)=O)NC(=O)[C@H]([C@@H](C)O)NC(=O)[C@H](C(C)C)NC(=O)[C@H](CC2CCCCC2)NC(=O)[C@H](CCN)NC(=O)[C@@H](CC(C)C)NC(=O)[C@H](C)N(C)C1=O [Compound 1869] ({CH2CO}-RY(Carboxymethyl)D[Phe(3-Me)]Y[Bip][Orn](Ac)[NMeA][dL][Dab][Cha]VTC-NH2; thioether N-14)	0.05
CC(C)C[C@@H]1NC(=O)[C@H](CCCNC(=N)N)NC(=O)[C@@H](CC(C)C)NC(=O)[C@H](C)N(C)C(=O)[C@H](CCCNC(=N)N)NC(=O)[C@H](Cc2ccc(-c3ccccc3)cc2)NC(=O)[C@H](C(C)C)NC(=O)[C@H](Cc2c[nH]c3ccccc23)NC(=O)[C@H](CC(=O)O)NC(=O)[C@H](Cc2ccc(F)cc2)NC(=O)[C@H](Cc2ccccc2)NC(=O)CSC[C@@H](C(=O)N[C@@H](C)C(N)=O)NC(=O)[C@H]([C@@H](C)O)NC(=O)[C@H](C(C)C)NC1=O [Compound 1080] ({CH2CO}-F[Phe(4-F)]DWV[Bip]R[NMeA][dL]RLVTCA-NH2; thioether N-14)	0.14
Cc1cccc(C[C@@H]2NC(=O)[C@H](CC(=O)O)NC(=O)[C@H](Cc3ccc(OCC(=O)O)cc3)NC(=O)[C@H](Cc3ccncc3)NC(=O)CSC[C@@H](C(N)=O)NC(=O)[C@H](CC(=O)O)NC(=O)[C@H](C(C)C)NC(=O)[C@H](CC3CCCCC3)NC(=O)[C@H](CCN)NC(=O)[C@@H](CC(C)C)NC(=O)[C@H](C)N(C)C(=O)[C@H](Cc3ccc(OCC(=O)O)cc3)NC(=O)[C@H](Cc3ccc(-c4ccccc4)cc3)NC(=O)[C@H](Cc3ccc(OCC(=O)O)cc3)NC2=O)c1 [Compound 1658] ({CH2CO}-[4Pal]Y(Carboxymethyl)D[Phe(3-Me)]Y(Carboxymethyl)[Bip]Y(Carboxymethyl)[NMeA][dL][Dab][Cha]VDC-NH2; thioether N-14)	0.03
CC(C)C[C@@H]1NC(=O)[C@H](CCN)NC(=O)[C@@H](CC(C)C)NC(=O)[C@H](C)N(C)C(=O)[C@H](CCCNC(=N)N)NC(=O)[C@H](Cc2ccc(-c3ccccc3)cc2)NC(=O)[C@H](C(C)C)NC(=O)[C@H](Cc2c[nH]c3ccccc23)NC(=O)[C@H](CC(=O)O)NC(=O)[C@H](Cc2cccc(F)c2)NC(=O)[C@H](CC(N)=O)NC(=O)CSC[C@@H](C(=O)N[C@@H](C)C(N)=O)NC(=O)[C@H]([C@@H](C)O)NC(=O)[C@H](C(C)C)NC1=O [Compound 1309] ({CH2CO}-N[Phe(3-F)]DWV[Bip]R[NMeA][dL][Dab]LVTCA-NH2; thioether N-14)	0.09
CC(C)C[C@@H]1NC(=O)[C@H](CCN)NC(=O)[C@@H](CC(C)C)NC(=O)[C@H](C)N(C)C(=O)[C@H](CCCN)NC(=O)[C@H](Cc2ccc(-c3ccccc3)cc2)NC(=O)[C@H](C(C)C)NC(=O)[C@H](Cc2c[nH]c3ccccc23)NC(=O)[C@H](CC(=O)O)NC(=O)[C@H](Cc2ccc(OCC(=O)O)cc2)NC(=O)[C@H](CC(N)=O)NC(=O)CSC[C@@H](C(=O)N[C@@H](C)C(N)=O)NC(=O)[C@H]([C@@H](C)O)NC(=O)[C@H](C(C)C)NC1=O [Compound 1387] ({CH2CO}-NY(Carboxymethyl)DWV[Bip][Orn][NMeA][dL][Dab]LVTCA-NH2; thioether N-14)	0.03
CC(=O)NCC[C@H](NC(=O)[C@@H]1CSCC(=O)N[C@@H](C(C)O)C(=O)N[C@@H](Cc2ccc(OCC(=O)O)cc2)C(=O)N[C@@H](CC(=O)O)C(=O)N[C@@H](Cc2cccc(C)c2)C(=O)N[C@@H](Cc2ccc(C(=O)O)cc2)C(=O)N[C@@H](Cc2ccc(-c3ccccc3)cc2)C(=O)N[C@@H](Cc2ccc(OCC(=O)O)cc2)C(=O)N(C)[C@@H](C)C(=O)N[C@H](CC(C)C)C(=O)N[C@@H](CCN)C(=O)N[C@@H](CC2CCCCC2)C(=O)N[C@@H](C(C)(C)O)C(=O)N[C@@H](Cc2cnc[nH]2)C(=O)N1)C(N)=O (stereo partly drawn) [Compound 2161] ({CH2CO}-[Thr(3ξ)]Y(Carboxymethyl)D[Phe(3-Me)][Phe(4-COOH)][Bip]Y(Carboxymethyl)[NMeA][dL][Dab][Cha][Val(3-OH)]HC[Dab](Ac)-NH2; thioether N-14)	0.04
Cc1cccc(C[C@@H]2NC(=O)[C@H](CC(=O)O)NC(=O)[C@H](Cc3ccc(OCC(=O)O)cc3)NC(=O)[C@H]([C@@H](C)O)NC(=O)CSC[C@@H](C(N)=O)NC(=O)[C@H](CC(=O)O)NC(=O)[C@H](C(C)C)NC(=O)[C@H](CC3CCCCC3)NC(=O)[C@H](CCN)NC(=O)[C@@H](CC(C)C)NC(=O)[C@H](C)N(C)C(=O)[C@H](Cc3ccc(OCC(=O)O)cc3)NC(=O)[C@H](Cc3ccc(-c4ccccc4)cc3)NC(=O)[C@H](Cc3ccc(OCC(=O)O)cc3)NC2=O)c1 [Compound 1670] ({CH2CO}-TY(Carboxymethyl)D[Phe(3-Me)]Y(Carboxymethyl)[Bip]Y(Carboxymethyl)[NMeA][dL][Dab][Cha]VDC-NH2; thioether N-14)	0.08
Cc1cccc(C[C@@H]2NC(=O)[C@H](Cc3cccnc3)NC(=O)CSC[C@@H](C(=O)NCC(N)=O)NC(=O)[C@H](CO)NC(=O)[C@H](C(C)C)NC(=O)[C@H](CC(C)C)NC(=O)[C@H](CC(N)=O)NC(=O)[C@@H](CC(C)C)NC(=O)[C@H](C)N(C)C(=O)[C@H](C(C)C)NC(=O)[C@H](Cc3ccc(-c4ccccc4)cc3)NC(=O)[C@H](CC(C)C)NC(=O)[C@H](Cc3c[nH]c4ccccc34)NC(=O)[C@H](CC(=O)O)NC2=O)c1 [Compound 1520] ({CH2CO}-[3Pal][Phe(3-Me)]DWL[Bip]V[NMeA][dL]NLVSCG-NH2; thioether N-14)	0.01
CC(C)C[C@@H]1NC(=O)[C@H](Cc2c[nH]c3ccccc23)NC(=O)[C@H](CC(=O)O)NC(=O)[C@H](Cc2ccc(C(=O)O)cc2)NC(=O)[C@H](Cc2ccccc2)NC(=O)CSC[C@@H](C(=O)N[C@@H](C)C(N)=O)NC(=O)[C@H](CO)NC(=O)[C@H](C(C)C)NC(=O)[C@H](CC(C)C)NC(=O)[C@H](CC(N)=O)NC(=O)[C@@H](C)NC(=O)[C@H](C)N(C)C(=O)[C@H](C(C)C)NC(=O)[C@H](Cc2ccc(-c3ccccc3)cc2)NC1=O [Compound 1731] ({CH2CO}-F[Phe(4-COOH)]DWL[Bip]V[NMeA][dA]NLVSCA-NH2; thioether N-14)	0.01
CC(C)C[C@@H]1NC(=O)[C@H](CCN)NC(=O)[C@@H](CC(C)C)NC(=O)[C@H](C)N(C)C(=O)[C@H](CCCNC(N)=O)NC(=O)[C@H](Cc2ccc(-c3ccccc3)cc2)NC(=O)[C@H](C(C)C)NC(=O)[C@H](Cc2c[nH]c3ccccc23)NC(=O)[C@H](CC(=O)O)NC(=O)[C@H](Cc2ccc(O)cc2)NC(=O)[C@H](CC(N)=O)NC(=O)CSC[C@@H](C(=O)N[C@@H](C)C(N)=O)NC(=O)[C@H](CO)NC(=O)[C@H](C(C)C)NC1=O [Compound 1237] ({CH2CO}-NYDWV[Bip][Cit][NMeA][dL][Dab]LVSCA-NH2; thioether N-14)	0.03
CC[C@H](C)[C@@H]1NC(=O)[C@H](Cc2ccc(-c3ccccc3)cc2)NC(=O)[C@H](C(C)C)NC(=O)[C@H](Cc2c[nH]c3ccccc23)NC(=O)[C@H](CC(=O)O)NC(=O)[C@H](Cc2ccc(O)cc2)NC(=O)[C@H](Cc2ccncc2)NC(=O)CSC[C@@H](C(N)=O)NC(=O)[C@H]([C@@H](C)O)NC(=O)[C@H](C(C)C)NC(=O)[C@H](CC(C)C)NC(=O)[C@H](CCN)NC(=O)[C@@H](CC(C)C)NC(=O)[C@H](C)N(C)C1=O [Compound 1632] ({CH2CO}-[4Pal]YDWV[Bip]I[NMeA][dL][Dab]LVTC-NH2; thioether N-14)	0.13
CC(C)C[C@@H]1NC(=O)[C@H](Cc2c[nH]c3ccccc23)NC(=O)[C@H](CC(=O)O)NC(=O)[C@H](Cc2ccc(OCC(=O)O)cc2)NC(=O)[C@H](Cc2ccccc2)NC(=O)CSC[C@@H](C(=O)N[C@@H](C)C(N)=O)NC(=O)[C@H](CO)NC(=O)[C@H](C(C)C)NC(=O)[C@H](CC(C)C)NC(=O)[C@H](CC(N)=O)NC(=O)[C@@H](C)NC(=O)[C@H](C)N(C)C(=O)[C@H](C(C)C)NC(=O)[C@H](Cc2ccc(-c3ccccc3)cc2)NC1=O [Compound 1737] ({CH2CO}-FY(Carboxymethyl)DWL[Bip]V[NMeA][dA]NLVSCA-NH2; thioether N-14)	0.02
